From paper PMC6348381, “Discovery of an MLLT1/3 YEATS Domain Chemical Probe” (Angewandte Chemie (International Ed. in English), 2018)

Key:
MLLT1 YD = molecular target: T1, MLLT1 YD (Homo sapiens, UniProt Q03111); experiment: Isothermal titration calorimetry (ITC), MLLT1 YD; type: binding
T1 construct: made in house; host or cells: E. coli Rosetta
T1 sequence (Q03111 1-138 limits assumed): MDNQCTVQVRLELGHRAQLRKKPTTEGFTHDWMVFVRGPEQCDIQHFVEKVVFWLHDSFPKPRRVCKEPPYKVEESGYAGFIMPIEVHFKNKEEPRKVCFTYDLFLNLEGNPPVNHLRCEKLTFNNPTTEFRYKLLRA
Description: Experiments were carried out on a Nano -ITC Standard Volume Instrument (TA Instruments).
All experiments were carried out at 25 °C in 20 mM HEPES pH 7.5, 150 mM NaCl, 0.5 mM TCEP and 5% glycerol. Protein soluti ons were buffer exchanged by gel filtration. The titrations were conducted using an initial injection of 2 μL followed by 32 injections of 8 μL.
Background dilution heat was subtracted from each experiment. Thermodynamic parameters
changes in free energy, enthalpy and entropy respectively. Independent single site binding models were employed in data analysis.

MLLT3 [1] = molecular target: T2, MLLT3 (Homo sapiens, UniProt P42568); experiment: AlphaScreen assay, MLLT3; type: binding; conditions: Figure 1
T2 construct: made in house; host or cells: E. coli Rosetta
Description: Figure 1 Identified hit MLLT1/3 inhibitor compound 1.
II.IV Protein Expression and Purification
Human bromodomains were cloned, expressed and purified as previously described. The cloning, expression and purification of human YEATS domains are described as follows; Sequences for the wild type YEATS domains of MLLT1, MLLT3, GAS41 and YEATS2 were cloned into expression vectors (Table S1). E. coli Rosetta cells were grown in TB medium at 37°C. Overexpression was induced after five hours by addition of IPTG to a final concentration of 0.4 mM and cells were incubated at 17°C overnight. Cells were harvested by centrifugation and the cell pellet was resuspended in cold binding buffer (50 mM Tris at pH 7.5, 500 mM NaCl, 20 mM imidazole, 2 mM DTT) on a magnetic stirring plate at 4°C. The suspension was lysed using an Avestin EmulsiFlex-C5 homogeniser (1 pass without pressure, four passes with pressure between 1000-1500 bar). The lysate was clarified via centrifugation at 16,000 rpm at 4°C for 1 hour (JLA-16 rotor in Beckmann Coulter Avanti J-26S XP centrifuge). The supernatant was loaded onto a standard NiNTA column (HisTrap FF, 5 ml, GE Healthcare Lifesciences) on an ÄKTAxpress system (GE). […] Protein concentration was quantified via extinction at […] (NanoDrop ND-1000 Spectrophotometer) and protein identity was verified via SDS-PAGE and LC/MS. […]

CBP = molecular target: T3, CBP (Homo sapiens, UniProt Q92793); experiment: AlphaScreen selectivity screen, CBP; type: binding
T3 construct: made in house
T3 sequence (Q92793 1085-1192 limits assumed): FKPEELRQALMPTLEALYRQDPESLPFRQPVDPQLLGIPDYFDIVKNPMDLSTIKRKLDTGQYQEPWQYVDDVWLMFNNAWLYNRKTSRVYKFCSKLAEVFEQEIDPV
Excerpt: (§1) IC50 (µM) IC50 (µM) IC50 (µM) IC50 (µM) (µM) (µM) (µM)
(§2) Supplementary Table 1. […]

MLLT3 [2] = molecular target: T4, MLLT3 (Homo sapiens, UniProt P42568); experiment: NanoBRET assay, full-length MLLT3-NanoLuc / histone H3.3-HaloTag in HEK293 cells; type: cell-based; conditions: 24 h
T4 construct: in full length MLLT3 N-terminal NanoLuc, Histone; host or cells: HEK293
T4 sequence (P42568 1-568): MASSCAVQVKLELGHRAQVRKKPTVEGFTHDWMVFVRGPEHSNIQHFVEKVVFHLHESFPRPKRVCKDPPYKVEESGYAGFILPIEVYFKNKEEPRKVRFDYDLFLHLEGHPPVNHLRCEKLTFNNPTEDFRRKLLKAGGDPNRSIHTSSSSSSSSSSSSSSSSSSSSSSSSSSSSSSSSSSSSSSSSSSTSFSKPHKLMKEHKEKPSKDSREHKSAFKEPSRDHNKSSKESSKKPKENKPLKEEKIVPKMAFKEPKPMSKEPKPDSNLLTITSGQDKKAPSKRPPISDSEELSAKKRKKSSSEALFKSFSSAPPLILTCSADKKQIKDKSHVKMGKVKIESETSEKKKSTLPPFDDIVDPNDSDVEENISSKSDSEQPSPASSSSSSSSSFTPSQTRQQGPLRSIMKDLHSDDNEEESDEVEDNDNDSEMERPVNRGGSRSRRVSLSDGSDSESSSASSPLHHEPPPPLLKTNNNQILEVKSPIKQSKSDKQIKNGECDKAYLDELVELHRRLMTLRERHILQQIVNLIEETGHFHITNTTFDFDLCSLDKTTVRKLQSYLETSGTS
Description: II.V NanoLuciferase Bioluminescent Resonance Energy Transfer (NanoBRET) Assay[2]
HEK293 cells ([…]) were plated in each well of a 6-well plate after 6 h cells were co-transfected with Histone H3.3-HaloTag (NM_002107) and a NanoLuciferase fusion of MLLT1 or MLLT3 (WT sequences from Promega HaloTag® human ORF in pFN21A) at a 1:500 and 1:10 (NanoLuc® to HaloTag®) ratio respectively with FuGENE HD transfection regent. Sixteen hours post-transfection, cells were collected and exchanged into media containing phenol red-free DMEM and 4% FBS in the absence (control sample) or the presence (experimental sample) of 100 nM NanoBRET 618 fluorescent ligand (Promega).
Cell density was adjusted to 2 x 10^5 cells/mL and then seeded 100 µL/well in a white 96-well plate (Corning Costar #3917). Compounds were then added directly to media (in the presence of SAHA 2.5 µM) at final concentrations 0.01-30 μM or an equivalent amount of DMSO as a vehicle control, and the plates were incubated for 24 h at 37 °C in the presence […]
NanoBRET Nano-Glo substrate (Promega) was added to both control and experimental samples at a final concentration of 10 µM. Readings were performed within 5 minutes using a ClarioSTAR (BMG labtech) equipped with LP 480 and 610 nm filters. A corrected BRET ratio was calculated and is defined as the ratio of the emission at 610 nm/[…] for experimental samples minus the emission at 6 10 nm/640 nm for control samples (not incubated with NanoBRET fluorescent ligand). BRET ratios are expressed as milliBRET units (mBU), where 1 mBU corresponds to the corrected BRET ratio multiplied by 1000.
3.3 C-terminal HaloTag in HEK293 cells. Treatment with SAHA (2.5 µM) alone increases MLLT3- […]
dependent manner. Mean±SD of BRET ratio (mBU), n=4 technical replicates.
(also on this page, place not known: 5) -well H3.3 -HaloTag pFN21A ) ( NanoLuc® H aloTag®) post -transfection, red -free Nano -Glo 10 5 6 10 6 10 l igand). cells . […]

YEATS4 = molecular target: T5, YEATS4 (Homo sapiens, UniProt O95619); experiment: AlphaScreen selectivity screen, YEATS4; type: binding
T5 construct: made in house; host or cells: E. coli Rosetta
T5 sequence (O95619 15-158 limits assumed): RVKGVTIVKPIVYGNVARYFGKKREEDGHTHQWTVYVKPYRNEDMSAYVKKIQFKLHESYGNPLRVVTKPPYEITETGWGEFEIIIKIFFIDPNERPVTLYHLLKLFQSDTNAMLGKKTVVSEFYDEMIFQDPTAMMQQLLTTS
Excerpt: as §1, §2

TAF1 = TAF1 (Homo sapiens, UniProt P21675); experiment: AlphaScreen selectivity screen, TAF1; type: binding
Chain of TAF1 (P21675 1522-1656): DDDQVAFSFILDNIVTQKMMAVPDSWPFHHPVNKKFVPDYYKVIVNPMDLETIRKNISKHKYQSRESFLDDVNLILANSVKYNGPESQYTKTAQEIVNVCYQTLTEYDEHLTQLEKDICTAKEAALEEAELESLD

BRD4(1) = BRD4(1) (Homo sapiens, UniProt O60885); experiment: AlphaScreen selectivity screen, BRD4 (1); type: binding
Excerpt: as §1, §2

SMILES: COC(=O)c1ccc(C(=O)Nc2ccc3[nH]c(CN4CCCCC4)nc3c2)cc1 [Compound 1]
- Kd (MLLT1 YD): 1000 nM
- IC50 (MLLT3 [1]): 1000 nM

SMILES: C[C@H]1CCCN1Cc1nc2cc(NC(=O)c3ccc4c(cnn4C)c3)ccc2[nH]1 [Compound 92]
- inhibition of CBP (CBP; 10 μM using AS): no inhibition
- IC50 (CBP; AlphaScreen selectivity screen): > 10000 nM
- IC50 (MLLT3 [2]; in the presence of 2.5 μM SAHA): 400 ± 80 nM
- MLLT3-Histone 3.3 interaction (mBU) (MLLT3 [2]; representative assay): can reduce this interaction
- IC50 (YEATS4): > 10000 nM
- inhibition of TAF1 (TAF1; 10 μM using AS): no inhibition
- IC50 (TAF1; AlphaScreen selectivity screen): > 10000 nM
- inhibition of BRD4 (I) (BRD4(1); 10 μM using AS): no inhibition
- IC50 (BRD4(1); AlphaScreen selectivity screen): > 10000 nM
